This test has as its system P388 leukemia ip, CD2F1 mice, survival T/C. Put plainly: NCI In Vivo Anticancer Drug Screen. Data for tumor model P388 Leukemia (intraperitoneal) in CD2F1 (CDF1) mice. The note with it: endpoint: median survival time, higher = longer survival. In outline:
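Mice carrying the transplanted tumor received test compound or vehicle. Survival was recorded in each group, and the value is the treated-group measurement divided by that of the vehicle-treated control group.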

The mark [1] stands for this setting: dose: 50.0 mg/kg/injection, schedule: Q01DX005 (ip), vehicle: Klucel (hydroxypropylcellulose) (HPC).
Setting [2] is: dose: 100.0 mg/kg/injection, schedule: Q01DX005 (ip), vehicle: Klucel (hydroxypropylcellulose) (HPC).
[3] abbreviates: dose: 200.0 mg/kg/injection, schedule: Q01DX005 (ip), vehicle: Klucel (hydroxypropylcellulose) (HPC).
The mark [4] stands for this setting: dose: 100.0 mg/kg/injection, schedule: Q04DX003 (ip), vehicle: Klucel (hydroxypropylcellulose) (HPC).
Setting [5] is: dose: 200.0 mg/kg/injection, schedule: Q04DX003 (ip), vehicle: Klucel (hydroxypropylcellulose) (HPC).
[6] abbreviates: dose: 60.0 mg/kg/injection, schedule: Q01DX005 (ip), vehicle: saline with Tween-80.
[7] abbreviates: dose: 200.0 mg/kg/injection, schedule: Q01DX005 (ip), vehicle: saline with Tween-80.
Where [8] appears, read: dose: 50.0 mg/kg/injection, schedule: Q01DX009 (ip), vehicle: saline with Tween-80.
[9] abbreviates: dose: 100.0 mg/kg/injection, schedule: Q01DX001 (ip), vehicle: Klucel (hydroxypropylcellulose) (HPC).
The mark [10] stands for this setting: dose: 200.0 mg/kg/injection, schedule: Q01DX001 (ip), vehicle: Klucel (hydroxypropylcellulose) (HPC).
[11] abbreviates: dose: 12.5 mg/kg/injection, schedule: Q01DX009 (ip), vehicle: saline with Tween-80.
[12] abbreviates: dose: 25.0 mg/kg/injection, schedule: Q01DX009 (ip), vehicle: saline with Tween-80.
The mark [13] stands for this setting: dose: 50.0 mg/kg/injection, schedule: Q01DX009 (ip), vehicle: Klucel (hydroxypropylcellulose) (HPC).
The mark [14] stands for this setting: dose: 100.0 mg/kg/injection, schedule: Q01DX009 (ip), vehicle: Klucel (hydroxypropylcellulose) (HPC).
Where [15] appears, read: dose: 120.0 mg/kg/injection, schedule: Q01DX005 (ip), vehicle: saline with Tween-80.
Setting [16] is: dose: 240.0 mg/kg/injection, schedule: Q01DX005 (ip), vehicle: saline with Tween-80.
The mark [17] stands for this setting: dose: 50.0 mg/kg/injection, schedule: Q01DX005 (ip), vehicle: saline with Tween-80.
[18] abbreviates: dose: 100.0 mg/kg/injection, schedule: Q01DX005 (ip), vehicle: saline with Tween-80.

Several values for one entry are separate records, joined by “and”; a condition that tells them apart may be missing. Equal values may be shown once. Inconclusive results and toxic doses are left out. Bridge positions count the residues as written; N and C are the ends. Peptide text beside a SMILES is read from it. I, II: the chains in the order shown.

Turning to `COC1=C(C)C(=O)C2=C(C1=O)C1C3CC4=C(C(=O)C(OC)=C(C)C4=O)C(CNC(=O)C(C)O)N3C(C#N)C(C2)N1C` (configuration not stated), the T/C (dose: 2.5 mg/kg/injection, schedule: Q01DX005 (ip), vehicle: Klucel (hydroxypropylcellulose) (HPC)) was 155 % of control and 161 % of control.

As for `COc1ccc(C(=O)C(CCC(=O)c2ccc(O)cc2)S(C)(=O)=O)cc1` (configuration not stated), the T/C reads like this: under setting [1], 100 % of control; under setting [2], 93 % of control; under setting [3], 96 % of control.

Consider `CC(C)CC(NC(=O)C(N)CSSCC(N)C(=O)NC(CC(C)C)C(=O)O)C(=O)O` (stereo not drawn) (I: H-Cys-Leu-OH / II: H-Cys-Leu-OH; disulfide I:1-II:1; configuration not given here), for which the T/C by setting is: under setting [1], 106 % of control; under setting [2], 113 % of control; under setting [3], 92 % of control.

On to `CCCCCCCC/C=C\CCCCCCCC(=O)OC/C=C/COC(=O)c1ccccc1`, for which the T/C was 106 % of control under setting [4]; 99 % of control under setting [5]; 106 % of control (dose: 400.0 mg/kg/injection, schedule: Q04DX003 (ip), vehicle: Klucel (hydroxypropylcellulose) (HPC)).

As for `CC(=O)OCC1OC(OC2C=C(O[Si](C)(C)C)C[C@H]3C(=O)C=CC(=O)[C@@H]23)C(OC(C)=O)C(OC(C)=O)C1OC(C)=O` (some centres not stated), the T/C reads like this: (dose: 7.5 mg/kg/injection, schedule: Q01DX005 (ip), vehicle: saline with Tween-80) 98 % of control; (dose: 15.0 mg/kg/injection, schedule: Q01DX005 (ip), vehicle: saline with Tween-80) 98 % of control; under setting [6], 98 % of control and 102 % of control.

In the case of `CC1(C)CC(c2ccccc2)C(c2ccccc2)C(=O)O1` (configuration not stated), the T/C reads like this: under setting [4], 93 % of control; under setting [5], 92 % of control.

On to `O=C(CCN1C(=O)c2ccccc2C1=O)C(O)CCN1C(=O)c2ccccc2C1=O` (configuration not stated), for which the T/C is 98 % of control (dose: 6.25 mg/kg/injection, schedule: Q01DX005 (ip), vehicle: saline with Tween-80); 107 % of control (dose: 12.5 mg/kg/injection, schedule: Q01DX005 (ip), vehicle: saline with Tween-80); 100 % of control (dose: 25.0 mg/kg/injection, schedule: Q01DX005 (ip), vehicle: saline with Tween-80); 87 % of control under setting [7].

Take `CCc1ncc(CO)n1Cc1cccc2ccccc12`: the T/C is, setting by setting: under setting [8], 100 % of control; (dose: 100.0 mg/kg/injection, schedule: Q01DX009 (ip), vehicle: saline with Tween-80) 102 % of control; (dose: 200.0 mg/kg/injection, schedule: Q01DX009 (ip), vehicle: saline with Tween-80) 103 % of control.

Regarding `COc1ccc(C(=O)/C=C/c2ccc(OC)c(OC)c2OCc2ccccc2)c(O)c1`, the T/C is 94 % of control under setting [9] and 88 % of control under setting [10].

As to `O=c1ccc(=O)n(-c2ccccc2)[nH]1`, the T/C was 114 % of control (dose: 6.25 mg/kg/injection, schedule: Q01DX009 (ip), vehicle: saline with Tween-80); 100 % of control under setting [11]; 118 % of control under setting [12]; 119 % of control under setting [8].

Take `NCCCNc1cc(O)cc2cccnc12`: the T/C reads like this: (dose: 50.0 mg/kg/injection, schedule: Q01DX005 (ip), vehicle: saline) 93 % of control; (dose: 100.0 mg/kg/injection, schedule: Q01DX005 (ip), vehicle: saline) 95 % of control.

In the case of `NC(Cc1ccc2ccccc2c1Br)C(=O)O` (configuration not stated), the T/C runs as follows: under setting [13], 99 % of control; under setting [14], 99 % of control; (dose: 200.0 mg/kg/injection, schedule: Q01DX009 (ip), vehicle: Klucel (hydroxypropylcellulose) (HPC)) 97 % of control.

For `COC(=O)c1cc(-c2cccc3ccccc23)[nH]c(=O)c1C#N`, the T/C was 95 % of control under setting [6] and 100 % of control under setting [15].

With `Cc1cc[n+](C2=C(Nc3c(C)cccc3C)C(=O)c3ccccc3C2=O)cc1`, the T/C is 102 % of control under setting [6], 102 % of control under setting [15] and 114 % of control under setting [16].

`O=Nc1c[nH]c(=O)[nH]c1=O`: the T/C (dose: 50.0 mg/kg/injection, schedule: Q01DX009 (ip), vehicle: saline) is 97 % of control; the T/C (dose: 100.0 mg/kg/injection, schedule: Q01DX009 (ip), vehicle: saline) was 98 % of control; the T/C (dose: 200.0 mg/kg/injection, schedule: Q01DX009 (ip), vehicle: saline) is 100 % of control.

`Nc1nnc2nc(CC(=O)c3cccc([N+](=O)[O-])c3)/c(=C/C(=O)c3cccc([N+](=O)[O-])c3)n12`: the T/C is, setting by setting: under setting [17], 94 % of control; under setting [18], 91 % of control; under setting [7], 101 % of control.

As for `c1nc(NCCCN2CCOCC2)c2c3c(sc2n1)CCCC3`, the T/C under setting [17] is 109 % of control, the T/C under setting [18] was 101 % of control and the T/C under setting [7] was 100 % of control.

Regarding `COCc1c(C)oc2c(C)c3oc(=O)cc(C)c3cc12`, the T/C reads like this: (dose: 100.0 mg/kg/injection, schedule: Q05DX002 (ip), vehicle: saline with Tween-80) 101 % of control; (dose: 200.0 mg/kg/injection, schedule: Q05DX002 (ip), vehicle: saline with Tween-80) 95 % of control; (dose: 400.0 mg/kg/injection, schedule: Q05DX002 (ip), vehicle: saline with Tween-80) 107 % of control.

Regarding `CC(=O)c1ccc[n+](CCc2c[nH]c3ccccc23)c1`, the T/C was 104 % of control under setting [11], 113 % of control under setting [12] and 109 % of control under setting [8].

Turning to `CCCCCCCCCC[n+]1cccc(C(N)=O)c1`, the T/C reads like this: (dose: 5.0 mg/kg/injection, schedule: Q01DX009 (ip), vehicle: saline with Tween-80) 100 % of control; (dose: 10.0 mg/kg/injection, schedule: Q01DX009 (ip), vehicle: saline with Tween-80) 109 % of control; (dose: 20.0 mg/kg/injection, schedule: Q01DX009 (ip), vehicle: saline with Tween-80) 113 % of control.

`CCCCCCCCCCCCCCCCCC(=O)NC[n+]1ccccc1`: the T/C (dose: 50.0 mg/kg/injection, schedule: Q04DX002 (ip), vehicle: Klucel (hydroxypropylcellulose) (HPC)) was 96 % of control; the T/C (dose: 100.0 mg/kg/injection, schedule: Q04DX002 (ip), vehicle: Klucel (hydroxypropylcellulose) (HPC)) was 87 % of control; the T/C (dose: 200.0 mg/kg/injection, schedule: Q04DX002 (ip), vehicle: Klucel (hydroxypropylcellulose) (HPC)) was 91 % of control.

As for `CN(CC(O)C(O)CN(C)N=O)N=O` (configuration not stated), the T/C by setting is: under setting [9], 88 % of control; under setting [10], 94 % of control; (dose: 400.0 mg/kg/injection, schedule: Q01DX001 (ip), vehicle: Klucel (hydroxypropylcellulose) (HPC)) 100 % of control.

Take `C[C@H]1C[C@](C)(CO)Oc2oc3ccccc3c(=O)c21`: the T/C under setting [6] was 108 % of control, the T/C under setting [15] was 109 % of control and the T/C under setting [16] is 111 % of control.

Turning to `Cc1cncn2c(C)nnc12`, the T/C was 100 % of control (dose: 100.0 mg/kg/injection, schedule: Q04DX003 (ip), vehicle: saline) and 104 % of control (dose: 200.0 mg/kg/injection, schedule: Q04DX003 (ip), vehicle: saline).

For `Cc1c(C(=O)O)no[n+]1[O-]`, the T/C is, setting by setting: (dose: 60.0 mg/kg/injection, schedule: Q01DX005 (ip), vehicle: saline) 101 % of control; (dose: 120.0 mg/kg/injection, schedule: Q01DX005 (ip), vehicle: saline) 93 % of control; (dose: 240.0 mg/kg/injection, schedule: Q01DX005 (ip), vehicle: saline) 93 % of control.

For the compound `O=S(=O)(Nc1cc2ccccc2cc1NS(=O)(=O)N1CCCCC1)N1CCCCC1`, the T/C by setting is: under setting [13], 93 % of control; under setting [14], 89 % of control.
